Source: US10195196B2, “1,4-disubstituted pyridazine analogs there of and methods for treating SMN-deficiency-related conditions” (NOVARTIS AG, priority 2012, dated 2019)

System: SMN protein
Assay: cellular SMN ELISA (SMN protein elevation)
Assay type: cell-based
Conditions: myoblast cell line from SMNdelta7 mouse model, 24 hours treatment; for SMN activity Fold: fold activation over DMSO control
Procedure: A cellular SMN ELISA was used to measure the effects of low molecular weight compounds on SMN protein elevation. Cells from a myoblast cell line derived from the SMNdelta7 mouse model (kind gift from Steve Burden, NYU) were seeded into a 384-well plate at a density of 3000 cells/well and treated with compounds for 24 hours. ELISA capture plates were prepared by coating 384-well plates (Immulon 4HBX) with 0.5 ug/mL of anti-SMN mAb (BD Science, Catalog number 610647) at 4° C. overnight. The plates were washed 5 times with 110 uL of PBS-Tween (0.05% Tween-20, PBST), blocked with 100 uL of 1% BSA in PBST for 2 hours and washed (5 times) with 100 uL of PBST. After 24 hours of compound treatment cells were lysed in a modified RIPA-buffer, on ice for 1 hour. 20 uL of lysate and 20 uL of 1% BSA were then added to the ELISA capture plates and incubated at 4° C. overnight. Plates were washed (5 times) with PBST and then incubated with 1:100 dilution of primary rabbit anti-SMN polyclonal antibody (Santa cruz, Catalog number SC-15320) at room temperature for 1 hour and subsequently washed (5 times) with 110 uL of PBST. This was followed by addition of 1:100 Goat anti-Rabbit IgG-HRP linked (Cell Signaling, Catalog number 7074) secondary antibody for 1 hour. Plates were then washed with PBST and incubated with 40 uL TMB substrate (Cell Signaling, Catalog number 7004L) at room temperature for 1-10 minutes with shaking. The reaction was stopped by addition of 40 uL of stop solution (Cell signaling, Catalog number 7002L) and absorption was measured at 450 nm. Data was reported as fold activation over DMSO control, and EC50.
ELISA assay condition 1: compound concentration range 20 nM-10 uM; ELISA assay condition 2: compound concentration 100 pM-10 uM.

[1] = ELISA condition 2: compound concentration 100 pM-10 uM
[2] = ELISA condition 1: compound concentration range 20 nM-10 uM

| Structure (SMILES) | EC50 [1] | SMN activity Fold [1] | EC50 [2] | SMN activity Fold [2] |
| --- | --- | --- | --- | --- |
| COc1ccc2cc(-c3ccc(N(C)C4CC(C)(C)NC(C)(C)C4)nn3)c(O)cc2c1 [Example 24-6, 7-methoxy-3-(6-(methyl(2,2,6,6-tetramethylpiperidin-4-yl)amino)pyridazin-3-yl)naphthalen-2-ol] | 6 nM | 2.39 Fold | – | – |
| Cc1cnc(-c2cc(O)c(-c3ccc(N(C)C4CC(C)(C)NC(C)(C)C4)nn3)c(OCC3CC3)c2)o1 [Example 27-3, 3-(cyclopropylmethoxy)-2-(6-(methyl(2,2,6,6-tetramethylpiperidin-4-yl)amino)-pyridazin-3-yl)-5-(5-methyloxazol-2-yl)phenol] | 619 nM | 2.75 Fold | – | – |
| COc1ccc(-c2ccc(-c3ccc(N(C)C4CC(C)(C)NC(C)(C)C4)nn3)c(O)c2)cn1 [Example 41-4, 5-(6-methoxypyridin-3-yl)-2-(6-(methyl(2,2,6,6-tetramethylpiperidin-4-yl)amino)pyridazin-3-yl)phenol] | 80 nM | 3.29 Fold | – | – |
| Oc1cc(-n2cccn2)ccc1-c1ccc(OC2CCNC2)nn1 (stereo not shown) [Example 17-5, 5-(1H-pyrazol-1-yl)-2-(6-(pyrrolidin-3-yloxy)pyridazin-3-yl)phenol] | 2440 nM | 2.78 Fold | – | – |
| CC1(C)CC(Nc2ccc(-c3ccc(C#N)cc3O)nn2)CC(C)(C)N1 [Example 30-2, 3-hydroxy-4-(6-((2,2,6,6-tetramethylpiperidin-4-yl)amino)pyridazin-3-yl)benzonitrile] | 62 nM | 2.98 Fold | – | – |
| CN(c1ccc(-c2cc3ccc(C#N)cc3cc2O)nn1)C1CC(C)(C)NC(C)(C)C1 [Example 24-1, 7-hydroxy-6-(6-(methyl(2,2,6,6-tetramethylpiperidin-4-yl)amino)pyridazin-3-yl)-2-naphthonitrile] | 16 nM | 3.14 Fold | – | – |
| CN(c1ccc(-c2ccc3nccn3c2)nn1)C1CC(C)(C)NC(C)(C)C1 [Example 1-16, 6-(imidazo[1,2-a]pyridin-6-yl-pyridazin-3-yl)-methyl-(2,2,6,6-tetramethyl-piperidin-4-yl)-amine] | 2980 nM | 2.28 Fold | – | – |
| CN(c1ccc(-c2ccc(-c3ncc[nH]3)cc2O)nn1)C1CC(C)(C)NC(C)(C)C1 [Example 42-1, 5-(1H-imidazol-2-yl)-2-(6-(methyl(2,2,6,6-tetramethylpiperidin-4-yl)amino)pyridazin-3-yl)phenol] | 117 nM | 2.28 Fold | – | – |
| Oc1cc(-n2cccn2)ccc1-c1ccc(OC2CCNCC2F)nn1 (stereo not shown) [Example 17-10, 2-(6-((3-fluoropiperidin-4-yl)oxy)pyridazin-3-yl)-5-(1H-pyrazol-1-yl)-phenol] | 945 nM | 2.03 Fold | – | – |
| CN(c1ccc(-c2ccc3ccncc3c2)nn1)C1CC(C)(C)NC(C)(C)C1 [Example 1-14, 6-(isoquinolin-7-yl)-N-methyl-N-(2,2,6,6-tetramethylpiperidin-4-yl)pyridazin-3-amine] | 252 nM | 3.13 Fold | – | – |
| CN(c1ccc(-c2cc3ccc(O)c(Br)c3cc2O)nn1)C1CC(C)(C)NC(C)(C)C1 [Example 24-4, 1-bromo-6-(6-(methyl(2,2,6,6-tetramethylpiperidin-4-yl)amino)pyridazin-3-yl)naphthalene-2,7-diol] | 16 nM | 3.06 Fold | – | – |
| COc1cccc(-c2cc(O)c(-c3ccc(N(C)C4CC(C)(C)NC(C)(C)C4)nn3)c(OC)c2)c1 [Example 26-5, 3′,5-Dimethoxy-4-(6-(methyl(2,2,6,6-tetramethylpiperidin-4-yl)amino)pyridazin-3-yl)-[1,1′-biphenyl]-3-ol] | 313 nM | 2.14 Fold | – | – |
| CN1C(C)(C)CC(Nc2ccc(-c3ccc(Cl)cc3O)nn2)CC1(C)C [Example 3-4, 5-chloro-2-(6-(1,2,2,6,6-pentamethylpiperidin-4-ylamino)pyridazin-3-yl)phenol] | – | – | 620 nM | 2.03 Fold |
| CN(c1ccc(-c2ccc(C3=CCCC3)cc2O)nn1)C1CC(C)(C)NC(C)(C)C1 [Example 41-16, 5-(cyclopent-1-en-1-yl)-2-(6-(methyl(2,2,6,6-tetramethylpiperidin-4-yl)amino)pyridazin-3-yl)phenol] | 62 nM | 2.30 Fold | – | – |
| CN(c1ccc(-c2cc(C3=CCCC3)ccc2O)nn1)C1CC(C)(C)NC(C)(C)C1 [Example 32-5, 4-(cyclopent-1-en-1-yl)-2-(6-(methyl(2,2,6,6-tetramethylpiperidin-4-yl)amino)pyridazin-3-yl)phenol] | 231 nM | 2.52 Fold | – | – |
| CC1(C)CC(Nc2ccc(-c3c(O)cc(-c4cn[nH]c4)cc3OC(F)(F)F)nn2)CC(C)(C)N1 [Example 25-3, 5-(1H-pyrazol-4-yl)-2-(6-((2,2,6,6-tetramethylpiperidin-4-yl)amino)pyridazin-3-yl)-3-(trifluoromethoxy)phenol] | 119 nM | 2.39 Fold | – | – |
| CN(c1ccc(-c2cc(Cl)c(-c3cn[nH]c3)cc2O)nn1)C1CC(C)(C)NC(C)(C)C1 [Example 34-1, 4-chloro-2-(6-(methyl(2,2,6,6-tetramethylpiperidin-4-yl)amino)pyridazin-3-yl)-5-(1H-pyrazol-4-yl)phenol] | 7 nM | 2.80 Fold | – | – |
| CN(c1ccc(-c2ccc(-c3cnc(O)c(C(F)(F)F)c3)cc2O)nn1)C1CC(C)(C)NC(C)(C)C1 [Example 41-5, 5-(3-hydroxy-4-(6-(methyl(2,2,6,6-tetramethylpiperidin-4-yl)amino)pyridazin-3-yl)phenyl)-3-(trifluoromethyl)pyridin-2-ol] | 175 nM | 2.88 Fold | – | – |
| CC1(C)CC(Nc2ccc(-c3cc4ccc(O)cc4cc3O)nn2)CC(C)(C)N1 [Example 20-3, 3-(6-((2,2,6,6-tetramethylpiperidin-4-yl)amino)pyridazin-3-yl)naphthalene-2,7-diol] | 8 nM | 3.42 Fold | – | – |
| CN(c1ccc(-c2cc(-c3cn[nH]c3)ccc2O)nn1)C1CC(C)(C)NC(C)(C)C1 [Example 32-1, 2-(6-(methyl(2,2,6,6-tetramethylpiperidin-4-yl)amino)pyridazin-3-yl)-4-(1H-pyrazol-4-yl)phenol] | 125 nM | 2.67 Fold | – | – |
| Cn1ccc(-c2ccc(-c3ccc(N4CCC5(CCCNC5)C4)nn3)c(O)c2)cc1=O (stereo not shown) [Example 43-7, 4-(4-(6-(2,7-diazaspiro[4.5]decan-2-yl)pyridazin-3-yl)-3-hydroxyphenyl)-1-methylpyridin-2(1H)-one] | 156 nM | 2.42 Fold | – | – |
| CC1(C)CC(Oc2ccc(-c3ccc4ccncc4c3)nn2)CC(C)(C)N1 [Example 1-10, 7-(6-((2,2,6,6-tetramethylpiperidin-4-yl)oxy)pyridazin-3-yl)isoquinoline] | 1100 nM | 2.75 Fold | – | – |
| CN(c1ccc(-c2cc3ccc(OCCC(C)(C)O)cc3cc2O)nn1)C1CC(C)(C)NC(C)(C)C1 [Example 24-12, 7-(3-hydroxy-3-methylbutoxy)-3-(6-(methyl(2,2,6,6-tetramethylpiperidin-4-yl)amino)pyridazin-3-yl)naphthalen-2-ol] | 70 nM | 2.80 Fold | – | – |
